Measured values: paper PMC2361176, “Inhibitory effects of retinoic acid metabolism blocking agents (RAMBAs) on the growth of human prostate cancer cells and LNCaP prostate tumour xenografts in SCID mice” (British Journal of Cancer, 2006)

Experiments:
LNCaP cells [1] = experiment: TUNEL assay of apoptosis in LNCaP cells; type: cell-based, human; conditions: 1 or 5 μM, 6 days
Method: A total of 4000 LNCaP cells were plated on each well of an eight-well Lab-Tek II® chamber slide (Nalge Nunc International, Naperville, IL, USA). The LNCaP cells were then treated with either 1 or 5 μM of ATRA or RAMBA for 6 days. Cells were then fixed in 4% paraformaldehyde solution in dH2O. The cells were then processed and stained with FITC (fluorescein isothiocyanate) according to kit instructions (In situ cell death detection kit, AP, Roche Diagnostics Corp., Indianapolis, IN, USA). The FITC-stained cells are then mounted with VectorShield® mounting medium for fluorescence with DAPI (4′,6-diamidine-2′-phenylindole dihydrochloride) nuclear stain (Vector Laboratories, Inc., Burlingame, CA, USA) and covered with ApopTag® plastic coverslips (Intergen Company, Purchase, NY, USA). The slides were then examined under fluorescence microscopy (Eclipse E400, Nikon, Inc., Melville, NY, USA) and counted using SPOT Advance® 3.5 software (Diagnostic Instruments, Inc., Sterling Heights, MI, USA).

Bcl-2 = experiment: Western-blot analysis of Bcl-2 in LNCaP cells; type: cell-based, human; conditions: data not shown
Method: The Western-blot protocol described for cytokeratins 8/18 was followed with some exceptions. Cell lysates (50 μg) were separated on a 15% SDS–PAGE gel. All washing was performed using TBS containing 1% Tween 20 (TBS-T). Blocking was performed using 5% milk in TBS-T. Incubations were performed using rabbit monoclonal IgG antibody to Bad and Bcl-2 (1 : 1000), as well as horseradish peroxidase-linked anti-rabbit IgG antibodies (1 : 2000) (Cell Signaling Technology, Beverly, MA, USA).

LNCaP cells [2] = experiment: Cell-cycle analysis (propidium iodide, FACScan); type: cell-based, human; conditions: 1 μM, 6 days
Method: LNCaP cells were treated with 1 or 5 μM of ATRA or each of the RAMBAs for 6 days. The cells were trypsinised and washed twice in PBS (Life Technologies, Grand Island, NY, USA). The cells were fixed by adding 70% ethanol and stored at −20°C until staining. The cells were washed twice in PBS. A volume of 1 ml of a propidium iodide (PI) solution (50 μg ml^−1 in PBS) and 500 μl of an RNase stock solution (100 μg ml^−1) were added to the cells and incubated for 1 h in the dark. Approximately 10^4 stained cells were then analysed by flow cytometry (Becton Dickenson FACScan, Franklin Lakes, NJ, USA). The percentages of cells in G0/G1, S, and G2/M phases of the cell cycle as well as percentage of apoptotic cells (sub G0/G1) were determined using MODFIT LT software (Verity Software House, San Jose, CA, USA). The percentages of cells in G0/G1, S, and G2/M phases of the cell cycle were obtained from diploid cells in the sample and the percentage of apoptotic cells (sub G0/G1) was obtained from total cells minus the debris.

[3] = tested on: human breast T47D cancer cells; parameters: method as in Van Heusden et al, 2002; conditions: 1 μM, ref Van Heusden et al, 2002; cited from earlier work

SMILES	induction of apoptosis (TUNEL) (LNCaP cells [1])	expression of Bcl-2 (Bcl-2)	Sub-G1 (%) (LNCaP cells [2]; apoptotic cells, control 9.02)	G2/M (%) (LNCaP cells [2]; control 2.20)	S (%) (LNCaP cells [2]; control 15.01)	G0/G1 (%) (LNCaP cells [2]; control 82.78)	enhancement of the antiproliferative activity of ATRA [3]
CC1=C(/C=C/C(C)=C/C=C/C(C)=C/C(=O)Nc2ccc(O)cc2)C(C)(C)CCC1 [Compound 4-HPR, reference compound]	concentration-dependent induction of apoptosis	did not effect	7.52%	12.03%	9.18%	79.53%	–
C[C@@H]([C@H](c1ccc(Nc2nc3ccccc3s2)cc1)n1ccnc1)N(C)C [Compound R116010]	–	–	–	–	–	–	threefold
